Data published in US8916498B2, “Safening 6-(trisubstituted phenyl)-4-amino-2-pyridinecarboxylate herbicide injury on direct seeded and transplanted paddy rice” (priority 2008, dated 2014).
Where “and” joins values, the source holds several entries; their conditions need not be identical. Identical values can stand only once. Like-named read-outs stand apart in the source and are kept apart here.

What was measured:
[1] = tested on: direct seeded rice
[2] = tested on: CYPDI; assay: Postemergence herbicidal safening in direct seeded rice, visual injury on weed; assay type: in vivo; conditions: alone, after 3 weeks
[3] = tested on: ORYSA (rice); assay: Postemergence herbicidal safening in direct seeded rice, visual injury; conditions: for Visual Injury (%) ‘Lemont’ ORYSA Obs / ORYSA Visual Injury (%) ‘Cheniere’ Obs / ORYSA Visual Injury (%) ‘Clearfield’ Obs / ORYSA Visual Injury (%) ‘Cocodrie’ Obs / ORYSA Visual Injury (%) ‘Lemont’ Obs / ORYSA Visual Injury (%) ‘M202’ Obs / ORYSA Visual Injury (%) ‘Wells’ Obs: alone; for ORYSA Visual Injury (%) ‘Cheniere’ Obs / ORYSA Visual Injury (%) ‘Clearfield’ Obs / ORYSA Visual Injury (%) ‘Cocodrie’ Obs / ORYSA Visual Injury (%) ‘Lemont’ Obs / ORYSA Visual Injury (%) ‘M202’ Obs / ORYSA Visual Injury (%) ‘Wells’ Obs: after 3 weeks (Table 14)
Source text: A=observed efficacy of active ingredient A at the same concentration as used in the mixture.
B=observed efficacy of active ingredient B at the same concentration as used in the mixture.

[4] = tested on: SEBEX; assay: Postemergence herbicidal safening in direct seeded rice, visual injury on weed; assay type: in vivo; conditions: alone, after 3 weeks
[5] = tested on: ECHCO; assay: as above; assay type: in vivo; conditions: alone, after 3 weeks
[6] = tested on: weed test plant species; assay: Herbicidal safening in transplanted paddy rice, visual injury on weeds; assay type: in vivo; conditions: after 3 weeks; for Visual Injury (%) CYPDI Obs: Cyperus difformis; for Visual Injury (%) MOOVA Obs: Monochoria vaginalis; for Visual Injury (%) SCPJU Obs: Scirpus juncoides
Description: (§1) Evaluation of Herbicidal Safening in Transplanted Paddy Rice
(§2) The prepared mud was dispensed in 250 mL aliquots into 480 mL non-perforated plastic pots with a surface area of 91.6 cm^2 leaving a headspace of 3 cm in each pot. Rice seeds were planted in Sun Gro MetroMix 306 planting mixture, which typically has a pH of 6.0 to 6.8 and an organic matter content of about 30 percent, in plastic plug trays. Seedlings at the second or third leaf stage of growth were transplanted into 650 mL of mud contained in 960 mL non-perforated plastic pots with a surface area of 91.6 cm^2 four days prior to herbicide application. The paddy was created by filling the 3 cm headspace of the pots with water. […] Nutrients were added as Osmocote (17:6:10, Nitrogen:Phosphorus:Potassium (N:P:K)+minor nutrients) at 2 grams (g) per cup.
(§3) For technical grade compounds and safeners, a weighed amount, determined by the highest rate to be tested, was placed in an individual 120 mL glass vial and was dissolved in 20 mL of acetone to obtain concentrated stock solutions. […] The concentrated stock solutions obtained were diluted with 20 mL of acetone. Applications were made by injecting an appropriate amount of the stock solution into the aqueous layer of the paddy. […] All treated plant material received the same concentration of acetone and crop oil concentrate.

[7] = tested on: transplanted paddy rice; assay: Herbicidal safening in transplanted paddy rice, visual injury; assay type: in vivo, Oryza sativa; conditions: after 3 weeks
Description: as §1, §2, §3

[8] = tested on: transplanted paddy rice; assay: Safening activity of herbicide mixtures in transplanted paddy rice; assay type: in vivo, Oryza sativa
Description: as §2, §3
Forms of compound 1 were applied on an acid equivalent basis.

COc1cc(OC)nc(Oc2cccc(Oc3nc(OC)cc(OC)n3)c2C(=O)O)n1 [Bispyribac sodium]
ORYSA Visual Injury (%) ‘M202’ Obs ([1]; partner 28 g/ha alone): 15%
ORYSA Visual Injury (%) ‘Wells’ Obs ([1]; partner 28 g/ha alone): 20%

CCOC(=O)C(Cl)Cc1cc(-n2nc(C)n(C(F)F)c2=O)c(F)cc1Cl (stereo not drawn) [Carfentrazone-ethyl]
ORYSA Visual Injury (%) ‘M202’ Obs ([1]; partner 56 g/ha alone): 20%
ORYSA Visual Injury (%) ‘Wells’ Obs ([1]; partner 56 g/ha alone): 25%
ORYSA Visual Injury (%) ‘M202’ Obs ([1]; partner 112 g/ha alone): 20%
ORYSA Visual Injury (%) ‘Wells’ Obs ([1]; partner 112 g/ha alone): 35%

CCCCCC(C)OC(=O)COc1ccc(Cl)c2cccnc12 (stereo not drawn) [Cloquintocet-mexyl]
Visual Injury (%) CYPDI Obs ([2]; 35 g ai/ha): 0%
Visual Injury (%) CYPDI Obs ([2]; 70 g ai/ha): 0%
Visual Injury (%) CYPDI Obs ([2]; 140 g ai/ha): 0%
Visual Injury (%) CYPDI Obs ([2]; 280 g ae/ha): 0%
Visual Injury (%) CYPDI Obs ([2]; 280 g ai/ha): 0%
‘M202’ ORYSA Visual Injury (%) Obs ([3]; Safener Alone, 560 g ai/ha, after 3 weeks): 3.3%
Visual Injury (%) ‘Lemont’ ORYSA Obs ([3]; 35 g ai/ha, after 3 weeks): 0%
Visual Injury (%) ‘Lemont’ ORYSA Obs ([3]; 70 g ai/ha, after 3 weeks): 0%
Visual Injury (%) ‘Lemont’ ORYSA Obs ([3]; 140 g ai/ha, after 3 weeks): 0%
ORYSA Visual Injury (%) ‘Cheniere’ Obs ([3]; 140 g ai/ha): 0%
ORYSA Visual Injury (%) ‘Clearfield’ Obs ([3]; 140 g ai/ha): 0%
ORYSA Visual Injury (%) ‘Cocodrie’ Obs ([3]; 140 g ai/ha): 0%
ORYSA Visual Injury (%) ‘Lemont’ Obs ([3]; 140 g ai/ha): 0%
ORYSA Visual Injury (%) ‘M202’ Obs ([3]; 140 g ai/ha): 0%
ORYSA Visual Injury (%) ‘Wells’ Obs ([3]; 140 g ai/ha): 0%
Visual Injury (%) ‘Lemont’ ORYSA Obs ([3]; 280 g ae/ha, after 3 weeks): 0%
Visual Injury (%) ‘Lemont’ ORYSA Obs ([3]; 280 g ai/ha, after 3 weeks): 0%
ORYSA Visual Injury (%) ‘Cheniere’ Obs ([3]; 280 g ai/ha): 0%
ORYSA Visual Injury (%) ‘Clearfield’ Obs ([3]; 280 g ai/ha): 0%
ORYSA Visual Injury (%) ‘Cocodrie’ Obs ([3]; 280 g ai/ha): 0%
ORYSA Visual Injury (%) ‘Lemont’ Obs ([3]; 280 g ai/ha): 0%
ORYSA Visual Injury (%) ‘M202’ Obs ([3]; 280 g ai/ha): 0%
ORYSA Visual Injury (%) ‘Wells’ Obs ([3]; 280 g ai/ha): 0%
Visual Injury (%) SEBEX Obs ([4]; 35 g ai/ha): 0%
Visual Injury (%) SEBEX Obs ([4]; 70 g ai/ha): 0%
Visual Injury (%) SEBEX Obs ([4]; 140 g ai/ha): 0%
Visual Injury (%) SEBEX Obs ([4]; 280 g ae/ha): 0%
Visual Injury (%) SEBEX Obs ([4]; 280 g ai/ha): 0%
Visual Injury (%) ECHCO Obs ([5]; 35 g ai/ha): 0%
Visual Injury (%) ECHCO Obs ([5]; 70 g ai/ha): 0%
Visual Injury (%) ECHCO Obs ([5]; 140 g ai/ha): 0%
Visual Injury (%) ECHCO Obs ([5]; 280 g ae/ha): 0%
Visual Injury (%) ECHCO Obs ([5]; 280 g ai/ha): 0%
Visual Injury (%) CYPDI Obs ([6]; safener 70 g ai/ha alone): 0%
Visual Injury (%) CYPDI Obs ([6]; safener 140 g ai/ha alone): 0%
Visual Injury (%) CYPDI Obs ([6]; safener 280 g ai/ha alone): 0%
Visual Injury (%) MOOVA Obs ([6]; safener 70 g ai/ha alone): 0%
Visual Injury (%) MOOVA Obs ([6]; safener 140 g ai/ha alone): 0%
Visual Injury (%) MOOVA Obs ([6]; safener 280 g ai/ha alone): 0%

COc1c(Cl)ccc(-c2cc(N)c(Cl)c(C(=O)[O-])n2)c1F.[Na+] [Compound 1 Na + salt]
Visual Injury (%) CYPDI Obs ([2]; 70 g ai/ha): 95%
Visual Injury (%) ‘Lemont’ ORYSA Obs ([3]; 70 g ai/ha, after 3 weeks): 50%
Visual Injury (%) SEBEX Obs ([4]; 70 g ai/ha): 100%
Visual Injury (%) ECHCO Obs ([5]; 70 g ai/ha): 95%
Visual Injury (%) CYPDI Obs ([6]; herbicide 70 g ai/ha alone): 100%
Visual Injury (%) MOOVA Obs ([6]; herbicide 70 g ai/ha alone): 100%

CCN(CC)CC.COc1c(Cl)ccc(-c2cc(N)c(Cl)c(C(=O)O)n2)c1F [Compound 1 TEA Salt]
Visual Injury (%) SCPJU Obs ([6]; herbicide 70 g ae/ha alone): 100%
Visual Injury (%) SCPJU Obs ([6]; herbicide 140 g ae/ha alone): 100%
Visual Injury (%) ECHCG Obs ([6]; herbicide 70 g ae/ha alone): 99%
Visual Injury (%) ECHCG Obs ([6]; herbicide 140 g ae/ha alone): 100%
Visual Injury (%) ‘M202’ ORYSA Obs ([7]; herbicide 70 g ae/ha alone): 65%
‘M202’ ORYSA Visual Injury (%) Obs ([7]; herbicide 70 g ae/ha alone): 60%
Visual Injury (%) ‘M202’ ORYSA Obs ([7]; herbicide 140 g ae/ha alone): 70%
‘M202’ ORYSA Visual Injury (%) Obs ([7]; herbicide 140 g ae/ha alone): 85%
Visual Injury (%) ‘M202’ ORYSA Obs ([8]; compound 35 g/ha alone): 20%
Visual Injury (%) ‘M202’ ORYSA Obs ([8]; compound 70 g/ha alone): 35% and 50%

COc1c(Cl)ccc(-c2cc(N)c(Cl)c(C(=O)[O-])n2)c1Cl.[Na+] [Compound 2 Na + salt]
Visual Injury (%) CYPDI Obs ([2]; 70 g ai/ha): 100%
Visual Injury (%) ‘Lemont’ ORYSA Obs ([3]; 70 g ai/ha, after 3 weeks): 15%
Visual Injury (%) SEBEX Obs ([4]; 70 g ai/ha): 100%
Visual Injury (%) ECHCO Obs ([5]; 70 g ai/ha): 90%
Visual Injury (%) CYPDI Obs ([6]; herbicide 70 g ai/ha alone): 100%
Visual Injury (%) MOOVA Obs ([6]; herbicide 70 g ai/ha alone): 100%

CCCCOC(=O)[C@@H](C)Oc1ccc(Oc2ccc(C#N)cc2F)cc1 [Cyhalofop-butyl]
Visual Injury (%) ‘M202’ ORYSA Obs ([8]; partner 90 g/ha alone): 0%
Visual Injury (%) ‘M202’ ORYSA Obs ([8]; partner 180 g/ha alone): 0%
